Data on 56 compounds can be found in ChEMBL document CHEMBL1146801, “Oxyguanidines. Part 2: Discovery of a novel orally active thrombin inhibitor through structure-based drug design and parallel synthesis” (Bioorg Med Chem Lett, 2004).

Data set [1] addresses Prothrombin (Homo sapiens, UniProt P00734). Description: Inhibitory activity against thrombin.
The nature of data set [2]: Cmax on p.o. administration of 10 mg/kg was measured in dog. In kind it is ADME, organism-based, Canis lupus familiaris. Details: dose 10 mg/kg, route oral. The following applies: in vivo, po.
Data set [3] in a line: Vss on i.v. administration of 2 mg/kg was measured in dog. It is filed as ADME, organism-based, Canis lupus familiaris. Details: dose 2 mg/kg, route intravenous. The following applies: in vivo, iv, read-out: Vss.
The nature of data set [4]: Bioavailability in dog. In kind it is ADME, organism-based, Canis lupus familiaris. The settings on record: in vivo.
Data set [5] in a line: Half life on i.v. administration of 2 mg/kg was measured in dog. It is filed as ADME, organism-based, Canis lupus familiaris. Details: dose 2 mg/kg, route intravenous. The settings on record: in vivo, iv.
Data set [6] is described as follows: Clearance on i.v. administration of 2 mg/kg was measured in dog. In kind it is ADME, organism-based, Canis lupus familiaris. Details: dose 2 mg/kg, route intravenous. The following applies: in vivo, iv.
For data set [7], the system named is Caco-2. Briefly: Apparent permeability coefficient (Papp) from the apical to basolateral side in the human Caco-2 monolayer was determined. In kind it is functional.
For data set [8], the species on record is Homo sapiens. Briefly: Concentration of compound required to double the human activated partial thromboplastin time. In kind it is functional.

Compound `CCCN(CC1CCC1)C(=O)c1cc(C)cc(OCCCON=C(N)N)c1` returned a Ki in data set [1] of 17 nM.

Turning to `CCCN(Cc1ccncc1)C(=O)c1cc(C)cc(OCCCONC(=N)N)c1`, the Ki in data set [1] was found to be 73 nM.

In turn, `Cc1cc(OCCCONC(=N)N)cc(C(=O)N(Cc2ccoc2)CC2CC2)c1` had a Ki in data set [1] of 11 nM. In addition, the concentration in data set [2] peaked (Cmax) at 5.1 µM. Besides, the Vd in data set [3] was 1.6 L/kg. The bioavailability in data set [4] came to 68%. In data set [5], this compound gave a half-life of 2.5 h. The clearance in data set [6] came out at 7.8 mL/min/kg.

`CCCN(Cc1ccccn1)C(=O)c1cc(C)cc(OCCCON=C(N)N)c1` registered a Ki in data set [1] of 94 nM.

`CCCCN(Cc1ccoc1)C(=O)c1cc(C)cc(OCCCONC(=N)N)c1` yielded a Ki in data set [1] of 8 nM. Against the preceding compound, the Ki is about 12-fold lower.

Compound `Cc1cc(OCCCONC(=N)N)cc(C(=O)N(CCC(N)=O)Cc2ccoc2)c1` yielded a Ki in data set [1] of 110 nM.

Regarding `CN(C(=O)c1cc(Cl)cc(OCCCON=C(N)N)c1)C1CCCCC1`, the affinity in data set [1], expressed as Ki, was 33 nM.

In data set [1], `N=C(N)NOCCCOc1cc(Cl)cc(C(=O)N(CCc2cccnc2)CC2CC2)c1` gave a Ki of 47 nM.

Take `N=C(N)NOCCCOc1cc(Cl)cc(C(=O)N(CCN2CCOCC2)CC2CC2)c1`: the Ki in data set [1] was determined as 159 nM.

`CCCN(Cc1ccoc1)C(=O)c1cc(C)cc(OCCCONC(=N)N)c1` gave an inhibition constant Ki in data set [1] of 9 nM. In data set [2], this compound registered a peak concentration (Cmax) of 4.5 µM. Moreover, in data set [3], the Vd came out at 2.4 L/kg. Besides, the bioavailability in data set [4] was 62%. In data set [5], the half-life was 3.8 h. This compound gave a clearance in data set [6] of 10.1 mL/min/kg.

For the compound `N=C(N)NOCCCOc1cc(Cl)cc(C(=O)N2CCC(Cc3ccccc3)CC2)c1`, in data set [1], the inhibition constant (Ki) amounted to 1500 nM.

Compound `Cc1cc(OCCCONC(=N)N)cc(C(=O)N(Cc2ccccn2)CC2CC2)c1` yielded a Ki in data set [1] of 86 nM.

`Cc1cc(OCCCONC(=N)N)cc(C(=O)N(Cc2ccoc2)C2CCC2)c1` showed a Ki in data set [1] of 22 nM.

The compound `CCCN(Cc1nccs1)C(=O)c1cc(C)cc(OCCCONC(=N)N)c1` yielded an inhibitory constant (Ki) in data set [1] of 195 nM. Against the preceding compound, the Ki is about 8.9-fold higher.

On to `Cc1cc(OCCCONC(=N)N)cc(C(=O)N(Cc2cccnc2)CC2CC2)c1`, for which the Ki in data set [1] turned out to be 34 nM.

In data set [1], `CCOC(=O)CCN(CC1CC1)C(=O)c1cc(C)cc(OCCCONC(=N)N)c1` came in with a Ki of 65 nM.

In turn, `C=CCN(Cc1ccoc1)C(=O)c1cc(Cl)cc(OCCCONC(=N)N)c1` registered an inhibition constant (Ki) in data set [1] of 20 nM.

In data set [2], `CCCN(Cc1ccoc1)C(=O)c1cc(C)cc(OCC2(CON=C(N)N)CC2)c1` had a maximum concentration (Cmax) of 5.8 µM. Further, the Vd in data set [3] was found to be 1.7 L/kg. For the same compound, the bioavailability in data set [4] stood at 73%. In data set [5], the half-life was 4.4 h. For the same compound, in data set [6], the clearance turned out to be 4.2 mL/min/kg. Also, the Activity in data set [7] was 4.11e-06 cm/s.

With `CCSCCN(Cc1ccoc1)C(=O)c1cc(C)cc(OCCCON=C(N)N)c1`, the inhibitory constant (Ki) in data set [1] was found to be 6 nM. In other words, the single-digit nanomolar range.

For `N=C(N)NOCCCOc1cc(Cl)cc(C(=O)N(CCc2ccncc2)CC2CC2)c1`, the affinity in data set [1] corresponds to a Ki of 52 nM.

`CCN(Cc1ccncc1)C(=O)c1cc(Cl)cc(OCCCONC(=N)N)c1` gave a Ki in data set [1] of 1600 nM. This Ki is about 31-fold higher than that of the compound before.

Consider `CCN(Cc1ccccc1)C(=O)c1cc(Cl)cc(OCCCONC(=N)N)c1`, for which the Ki in data set [1] was 91 nM.

`Cc1cc(OCCCONC(=N)N)cc(C(=O)N(Cc2ccncc2)CC2CC2)c1` registered a Ki in data set [1] of 24 nM.

In turn, `Cc1cc(OCCCONC(=N)N)cc(C(=O)N(CCCCCC(N)=O)C2CCCCC2)c1` returned an inhibition constant Ki in data set [1] of 8 nM. Against the preceding compound, the Ki is about 3-fold lower.

In data set [1], `N=C(N)NOCCCOc1cc(Cl)cc(C(=O)N2CCCCC2)c1` returned a Ki of 880 nM. This Ki is about 110-fold higher than that of the compound before.

`Cc1cc(OCCCON=C(N)N)cc(C(=O)N(Cc2ccoc2)C(C)C)c1`: affinity in data set [1] was put at a Ki of 68 nM.

In data set [1], `N=C(N)NOCCCOc1cc(Cl)cc(C(=O)N(CCc2ccccn2)CC2CC2)c1` registered an inhibition constant Ki of 59 nM.

As to `COC(=O)CCN(CC1CC1)C(=O)c1cc(Cl)cc(OCCCONC(=N)N)c1`, in data set [1], the affinity corresponds to a Ki of 38 nM.

For the compound `N=C(N)NOCCCOc1cc(Cl)cc(C(=O)N(Cc2ccoc2)CC2CC2)c1`, the affinity in data set [1], expressed as Ki, was 17 nM.

Consider `N=C(N)NOCCCOc1cc(Cl)cc(C(=O)N2CCCCCC2)c1`, for which, in data set [1], affinity was put at a Ki of 470 nM.

With `C=CCN(C(=O)c1cc(C)cc(OCCCONC(=N)N)c1)C1CCCC1`, the inhibition constant (Ki) in data set [1] turned out to be 10 nM. Besides, the peak concentration (Cmax) in data set [2] worked out at 3.7 µM. The Vd in data set [3] worked out at 2.8 L/kg. The compound further registered a bioavailability in data set [4] of 89%. The same compound showed a half-life in data set [5] of 3.7 h. The clearance in data set [6] amounted to 11.2 mL/min/kg.

For `N=C(N)NOCCCOc1cc(Cl)cc(C(=O)N(CCN2CCCC2)CC2CC2)c1`, affinity in data set [1] was put at a Ki of 204 nM. This lies in the sub-micromolar range.

Regarding `N=C(N)NOCCCOc1cc(Cl)cc(C(=O)N2CCN(c3ccccn3)CC2)c1`, the affinity in data set [1], expressed as Ki, was 640 nM.

As to `C=CCN(C(=O)c1cc(C)cc(OCCCONC(=N)N)c1)C1CCCCC1`, in data set [1], the inhibition constant Ki was determined as 9 nM.

In data set [1], `CCCN(CC1CCC1)C(=O)c1cc(Cl)cc(OCCCON=C(N)N)c1` displayed a Ki of 16 nM.

For the compound `C=CCN(C(=O)c1cc(C)cc(OCCCON=C(N)N)c1)C1CCCC1`, the 2 x APTT in data set [8] turned out to be 11.3 µM. Besides, the Activity in data set [7] is 4.86e-06 cm/s.

Compound `C[C@H](CS)C(=O)N1CCC[C@H]1C(=O)O` [CAPTOPRIL] yielded a Ki in data set [1] of 48 nM. That is a double-digit nanomolar value.

Compound `CCCN(CC1CCCC1)C(=O)c1cc(Cl)cc(OCCCONC(=N)N)c1` returned a Ki in data set [1] of 38 nM.

In data set [8], `Cc1cc(OCCCON=C(N)N)cc(C(=O)N(Cc2ccoc2)CC2CC2)c1` showed a 2 x APTT of 8.4 µM. The Activity in data set [7] is 3e-06 cm/s.

Consider `COCCN(CC1CC1)C(=O)c1cc(Cl)cc(OCCCONC(=N)N)c1`, for which the affinity in data set [1], expressed as Ki, was 156 nM.

Compound `COCCN(Cc1ccoc1)C(=O)c1cc(C)cc(OCCCON=C(N)N)c1` showed a Ki in data set [1] of 28 nM. Compared with the last compound, the Ki is about 5.6-fold lower.

`Cc1cc(OCCCONC(=N)N)cc(C(=O)N(Cc2ccsc2)CC2CC2)c1` returned a Ki in data set [1] of 31 nM. The Ki values of the last two compounds are within 1.5-fold of each other.

As to `CCCN(CC1CC1)C(=O)c1cc(Cl)cc(OCCCONC(=N)N)c1`, affinity in data set [1] was put at a Ki of 23 nM.

Take `N=C(N)NOCCCOc1cc(Cl)cc(C(=O)N2CCN(c3ccccc3)CC2)c1`: the affinity in data set [1], expressed as Ki, was 2900 nM.

`N=C(N)NOCCCOc1cc(Cl)cc(C(=O)N(CCC(=O)O)CC2CC2)c1` returned a Ki in data set [1] of 213 nM.

With `CN(C(=O)c1cc(Cl)cc(OCCCONC(=N)N)c1)C1CCCC1`, in data set [1], the Ki was found to be 373 nM.

In the case of `Cc1cc(OCC2(CONC(=N)N)CC2)cc(C(=O)N(Cc2ccoc2)CC2CC2)c1`, the inhibition constant Ki in data set [1] stood at 4 nM. For the same compound, in data set [2], the highest level (Cmax) was 4.1 µM. The Vd in data set [3] was 2.5 L/kg. The compound further gave a bioavailability in data set [4] of 77%. The compound also had a half-life in data set [5] of 5.9 h. The compound also yielded a clearance in data set [6] of 5.7 mL/min/kg.

On to `Cc1cc(OCCCON=C(N)N)cc(C(=O)N(Cc2ccoc2)CC2CCCCC2)c1`, for which, in data set [1], the Ki was 21 nM.

`N=C(N)NOCCCOc1cc(Cl)cc(C(=O)N2CCc3ccccc3C2)c1` returned an inhibitory constant (Ki) in data set [1] of 171 nM. This Ki is about 8.1-fold higher than that of the compound before.

For the compound `CCCN(Cc1cccnc1)C(=O)c1cc(C)cc(OCCCONC(=N)N)c1`, the Ki in data set [1] worked out at 52 nM.

Regarding `C=CCN(Cc1cccs1)C(=O)c1cc(Cl)cc(OCCCONC(=N)N)c1`, the Ki in data set [1] came to 147 nM.

In data set [1], `CCN(C(=O)c1cc(C)cc(OCCCONC(=N)N)c1)C1CCCCC1` yielded a Ki of 6 nM. This Ki lies about 24-fold lower than the previous one.

Turning to `Cc1cc(OCC2(CON=C(N)N)CC2)cc(C(=O)N(Cc2ccoc2)CC2CC2)c1`, the 2 x APTT in data set [8] worked out at 8.7 µM. The Activity in data set [7] came out at 2.17e-06 cm/s.

Compound `Cc1cc(OCCCON=C(N)N)cc(C(=O)N(CCC(C)C)Cc2ccoc2)c1` yielded a Ki in data set [1] of 7 nM.

With `CCCN(Cc1ccoc1)C(=O)c1cc(C)cc(OCCCON=C(N)N)c1`, in data set [8], the 2 x APTT stood at 11.5 µM. Further, in data set [7], the Activity came to 4.05e-06 cm/s.

In data set [1], `CCCN(Cc1ccc(F)cc1)C(=O)c1cc(C)cc(OCCCON=C(N)N)c1` registered an inhibition constant (Ki) of 21 nM.

What is called Ki is a measure of affinity in units of concentration, obtained from inhibition or displacement. A higher Ki goes with weaker binding. One may read the Cmax as the maximum level reached in the sampled fluid or tissue. For orientation: bioavailability means the share of a dose that reaches the circulation, judged against a reference dose that is usually intravenous. A lower bioavailability goes with little systemic uptake. The term half-life denotes the time in which the quantity being followed falls by half. A low value points to rapid decline. As a reminder, the clearance is the volume of plasma or blood freed of the substance per unit of time. A low value points to inefficient removal.
